Paper PMC9095706, “TMEM16 scramblases thin the membrane to enable lipid scrambling” (Nature Communications, 2022)

Columns and labels:
afTMEM16 = biological target: T1, afTMEM16 (Aspergillus fumigatus, UniProt Q4WA18); test: cryo-EM structure ([…] Å) in MSP1E3 nanodiscs; assay type: binding; details: 0.5 mM Ca2+; 7:3 DOPC:DOPG nanodisc; lipids D4 and D5 built as PG, near dimer interface and lipid pathway; models started from POPG (PGW) and truncated to density
T1 construct: gene AFUA_4G02970; expressed in S. cerevisiae from pDDGFP2, His tag removed with TEV protease, digitonin-purified homodimer, in MSP1E3 nanodiscs or proteoliposomes
T1 sequence (Q4WA18 1-735): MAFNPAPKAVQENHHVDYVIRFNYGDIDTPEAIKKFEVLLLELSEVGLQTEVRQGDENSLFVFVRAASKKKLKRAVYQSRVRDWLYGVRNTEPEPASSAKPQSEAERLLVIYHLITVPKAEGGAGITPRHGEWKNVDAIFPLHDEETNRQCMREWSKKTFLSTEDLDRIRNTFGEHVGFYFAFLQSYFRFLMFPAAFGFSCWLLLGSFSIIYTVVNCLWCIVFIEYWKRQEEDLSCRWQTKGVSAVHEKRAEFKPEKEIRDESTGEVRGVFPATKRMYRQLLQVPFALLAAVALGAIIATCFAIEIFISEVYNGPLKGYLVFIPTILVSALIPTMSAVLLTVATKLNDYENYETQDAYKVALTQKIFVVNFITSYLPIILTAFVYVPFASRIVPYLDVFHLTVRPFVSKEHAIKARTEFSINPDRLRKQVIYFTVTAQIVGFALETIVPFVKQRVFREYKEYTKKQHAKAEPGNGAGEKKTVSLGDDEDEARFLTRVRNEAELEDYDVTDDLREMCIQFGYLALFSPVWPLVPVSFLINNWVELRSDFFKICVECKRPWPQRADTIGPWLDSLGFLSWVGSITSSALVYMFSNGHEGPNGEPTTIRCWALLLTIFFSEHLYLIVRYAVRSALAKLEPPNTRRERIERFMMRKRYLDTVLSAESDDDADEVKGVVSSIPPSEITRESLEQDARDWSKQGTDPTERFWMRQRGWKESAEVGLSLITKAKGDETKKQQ

[1] = biological target: afTMEM16 scramblase from Aspergillus fumigatus (Aspergillus fumigatus); test: cryo-EM structure; afTMEM16 reconstituted in lipid nanodiscs (MSP1E3 or MSP2N2; C14, C18 or C22 lipids, 7 PC:3 PG), 50 mM HEPES pH 8.0, 150 mM KCl with 0.5 mM CaCl2 or 5 mM EDTA; homodimer, C2 symmetric reconstructions

Compound | cryo-EM structure (2.3 Å) in MSP1E3 nanodiscs (afTMEM16) | stoichiometry N [1]
CCCCCCCC/C=C\CCCCCCCC(=O)OC[C@H](COP(=O)(O)OCC(O)CO)OC(=O)CCCCCCC/C=C\CCCCCCCC (mixture of isomers) [1,2-dioleoyl-sn-glycero-3-phospho-(1′-rac-glycerol)] | The downward slope of the OL starts at D5, a well-defined PG lipid | –
afTMEM16 scramblase from Aspergillus fumigatus (natural protein) | – | 2
